Test results taken from ChEMBL document CHEMBL1149372, “Discovery of novel and potent thiazoloquinazolines as selective Aurora A and B kinase inhibitors” (J Med Chem, 2006).
In brackets after ≈: the same amount, converted by molar mass.

Experiments:
Aurora kinase A = target: T1, Aurora kinase A (Homo sapiens, UniProt O14965)
T1 sequence (O14965 whole entry): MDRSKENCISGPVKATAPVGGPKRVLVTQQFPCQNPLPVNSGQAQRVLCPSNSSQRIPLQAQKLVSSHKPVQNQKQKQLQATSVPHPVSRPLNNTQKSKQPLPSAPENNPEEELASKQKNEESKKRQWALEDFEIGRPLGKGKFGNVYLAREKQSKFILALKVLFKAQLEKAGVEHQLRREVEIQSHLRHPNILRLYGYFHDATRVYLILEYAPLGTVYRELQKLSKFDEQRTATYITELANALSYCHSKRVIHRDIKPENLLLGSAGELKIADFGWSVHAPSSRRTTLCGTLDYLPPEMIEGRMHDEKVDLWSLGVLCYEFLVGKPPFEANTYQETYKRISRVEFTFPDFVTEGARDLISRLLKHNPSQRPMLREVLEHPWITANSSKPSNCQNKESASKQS
Description: Inhibition of Aurora A kinase activity

SW-620 [1] = assay: Inhibition of phosphorylation of histone H3 in human SW620 cells; format: functional, cell-based
[2] = Inhibition of Aurora B-INCENP complex activity
Aurora kinase B = Aurora kinase B (Homo sapiens, UniProt Q96GD4); assay: Inhibition of Aurora-B immunoprecipitated from mitotic cells; format: functional
Mus musculus = species on record: Mus musculus; assay: Conversion to parent, N-(3-fluorophenyl)-2-{2-[(7-{3 -[4-(hydroxymethyl)piperidin-1 -yl]propoxy}-6-methoxyquinazol in-4-yl)amino]-1,3-thiazol-5-y l}acetamide in mouse plasma; format: ADME, organism-based; conditions: in vivo
[3] = Solubility in Tris buffer at pH 9.0, 25 degC; format: physicochemical
[4] = target: Tyrosine-protein kinase CSK (Homo sapiens, UniProt P41240); assay: Inhibitory activity against CSK
[5] = Volume of distribution in rat; format: ADME, organism-based; conditions: in vivo, read-out: Vdss
[6] = target: T2, Tyrosine-protein kinase JAK3 (Homo sapiens, UniProt P52333); assay: Inhibitory activity against JAK3
T2 sequence (P52333 whole entry): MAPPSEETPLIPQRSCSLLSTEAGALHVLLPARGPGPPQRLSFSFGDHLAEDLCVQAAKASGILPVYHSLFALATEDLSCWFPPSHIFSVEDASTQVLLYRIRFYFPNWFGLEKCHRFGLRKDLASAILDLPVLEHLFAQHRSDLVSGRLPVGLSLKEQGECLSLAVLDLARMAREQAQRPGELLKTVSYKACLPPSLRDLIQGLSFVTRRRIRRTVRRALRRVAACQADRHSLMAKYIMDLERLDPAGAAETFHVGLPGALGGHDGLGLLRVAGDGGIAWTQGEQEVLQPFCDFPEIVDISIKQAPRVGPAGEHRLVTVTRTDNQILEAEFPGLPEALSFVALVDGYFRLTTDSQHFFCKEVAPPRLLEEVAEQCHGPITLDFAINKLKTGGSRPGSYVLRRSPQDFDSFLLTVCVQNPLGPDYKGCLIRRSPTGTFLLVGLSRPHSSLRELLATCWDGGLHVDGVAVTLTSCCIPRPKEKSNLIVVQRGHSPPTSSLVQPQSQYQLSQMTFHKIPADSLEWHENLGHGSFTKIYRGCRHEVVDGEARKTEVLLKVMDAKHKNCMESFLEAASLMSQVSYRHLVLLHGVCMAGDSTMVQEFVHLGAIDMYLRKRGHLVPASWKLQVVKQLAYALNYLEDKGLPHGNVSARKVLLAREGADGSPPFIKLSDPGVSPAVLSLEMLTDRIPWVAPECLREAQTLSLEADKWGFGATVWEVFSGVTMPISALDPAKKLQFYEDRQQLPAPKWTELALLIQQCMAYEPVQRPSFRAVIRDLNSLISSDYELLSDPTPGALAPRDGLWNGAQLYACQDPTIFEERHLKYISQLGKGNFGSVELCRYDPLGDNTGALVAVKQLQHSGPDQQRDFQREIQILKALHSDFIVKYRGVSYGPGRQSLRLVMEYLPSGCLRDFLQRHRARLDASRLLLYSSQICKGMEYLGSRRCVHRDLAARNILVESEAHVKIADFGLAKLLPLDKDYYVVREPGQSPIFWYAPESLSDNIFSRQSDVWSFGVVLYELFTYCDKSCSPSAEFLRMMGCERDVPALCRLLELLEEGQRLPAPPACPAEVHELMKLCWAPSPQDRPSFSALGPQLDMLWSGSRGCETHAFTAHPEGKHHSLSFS

SW-620 [7] = assay: Antiproliferative activity against human colorectal carcinoma SW620 cells
[8] = Half life in rat; format: ADME, organism-based; conditions: in vivo
[9] = target: Cyclin-dependent kinase 2 (Homo sapiens, UniProt P24941); assay: Inhibitory activity against CDK2
[10] = target: Insulin-like growth factor 1 receptor (Homo sapiens, UniProt P08069); assay: Inhibitory activity against IGFR
[11] = Free drug level in rat serum albumin; format: ADME, organism-based
[12] = target: Mitogen-activated protein kinase 8 (Homo sapiens, UniProt P45983); assay: Inhibitory activity against JNK1alpha
[13] = target: Vascular endothelial growth factor receptor 2 (Homo sapiens, UniProt P35968); assay: Inhibitory activity against KDR
Focal adhesion kinase 1 = Focal adhesion kinase 1 (Homo sapiens, UniProt Q05397); assay: Inhibitory activity against FAK
[14] = Solubility in phosphate buffer at pH 7.4, 25 degC; format: physicochemical
[15] = Clearance in rat; format: ADME, organism-based; conditions: in vivo
[16] = Distribution coefficient of the compound, log D at pH 7.4; format: physicochemical; conditions: octanol/water
[17] = target: cAMP-dependent protein kinase (PKA) (Homo sapiens, UniProt P22694+P17612+P22612); assay: Inhibitory activity against PKA; format: protein assay
[18] = target: Mitogen-activated protein kinase 14 (Homo sapiens, UniProt Q16539); assay: Inhibitory activity against p38-alpha MAPK
[19] = target: Proto-oncogene tyrosine-protein kinase Src (Homo sapiens, UniProt P12931); assay: Inhibitory activity against SRC
[20] = target: Fibroblast growth factor receptor (Homo sapiens, UniProt P22607+P11362+P22455+P21802); assay: Inhibitory activity against FGFR; format: protein assay

Sequence of Focal adhesion kinase 1 (Q05397 whole entry): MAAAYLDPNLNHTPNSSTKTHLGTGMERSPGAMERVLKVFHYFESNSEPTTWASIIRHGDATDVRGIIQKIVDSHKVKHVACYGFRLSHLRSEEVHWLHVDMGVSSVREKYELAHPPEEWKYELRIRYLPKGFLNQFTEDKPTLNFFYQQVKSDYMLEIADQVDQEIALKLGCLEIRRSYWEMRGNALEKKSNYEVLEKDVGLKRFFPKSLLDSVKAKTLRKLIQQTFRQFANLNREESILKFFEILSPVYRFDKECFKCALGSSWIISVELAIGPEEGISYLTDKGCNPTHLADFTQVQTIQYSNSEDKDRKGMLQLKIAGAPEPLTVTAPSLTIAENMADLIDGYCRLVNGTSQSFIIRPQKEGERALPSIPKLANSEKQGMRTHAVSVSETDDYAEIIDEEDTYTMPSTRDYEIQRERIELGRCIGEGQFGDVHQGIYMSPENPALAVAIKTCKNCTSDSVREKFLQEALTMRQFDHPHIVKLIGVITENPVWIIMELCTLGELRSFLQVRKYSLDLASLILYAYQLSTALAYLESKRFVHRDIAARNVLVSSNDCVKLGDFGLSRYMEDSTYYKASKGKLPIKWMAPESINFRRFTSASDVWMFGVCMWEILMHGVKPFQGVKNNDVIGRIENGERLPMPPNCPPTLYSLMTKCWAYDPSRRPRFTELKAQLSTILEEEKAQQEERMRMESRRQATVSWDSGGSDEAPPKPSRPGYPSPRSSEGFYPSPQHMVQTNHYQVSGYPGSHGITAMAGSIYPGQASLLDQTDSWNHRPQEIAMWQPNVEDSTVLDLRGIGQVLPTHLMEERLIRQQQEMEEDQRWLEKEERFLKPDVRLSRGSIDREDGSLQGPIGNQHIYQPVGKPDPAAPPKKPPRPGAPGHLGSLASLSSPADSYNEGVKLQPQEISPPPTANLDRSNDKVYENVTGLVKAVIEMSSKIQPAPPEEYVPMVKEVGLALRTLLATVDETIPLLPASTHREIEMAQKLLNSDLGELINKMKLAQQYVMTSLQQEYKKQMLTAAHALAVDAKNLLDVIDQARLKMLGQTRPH
Sequence of Proto-oncogene tyrosine-protein kinase Src (P12931 2-536 limits assumed): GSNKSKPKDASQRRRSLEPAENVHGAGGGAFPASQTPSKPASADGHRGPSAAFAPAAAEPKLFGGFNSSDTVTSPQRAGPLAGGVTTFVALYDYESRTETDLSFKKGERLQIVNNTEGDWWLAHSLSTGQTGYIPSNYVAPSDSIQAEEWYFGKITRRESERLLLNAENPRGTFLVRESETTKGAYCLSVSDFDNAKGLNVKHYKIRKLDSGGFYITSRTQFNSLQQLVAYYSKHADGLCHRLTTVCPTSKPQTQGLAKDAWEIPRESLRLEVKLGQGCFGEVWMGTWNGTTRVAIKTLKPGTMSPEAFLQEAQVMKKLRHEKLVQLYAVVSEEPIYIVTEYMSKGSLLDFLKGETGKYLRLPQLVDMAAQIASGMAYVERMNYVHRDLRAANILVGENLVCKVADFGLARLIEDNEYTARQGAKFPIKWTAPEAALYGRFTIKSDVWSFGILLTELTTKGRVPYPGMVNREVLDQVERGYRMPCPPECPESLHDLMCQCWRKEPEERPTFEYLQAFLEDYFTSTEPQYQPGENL
Sequence of Mitogen-activated protein kinase 8 (P45983 whole entry): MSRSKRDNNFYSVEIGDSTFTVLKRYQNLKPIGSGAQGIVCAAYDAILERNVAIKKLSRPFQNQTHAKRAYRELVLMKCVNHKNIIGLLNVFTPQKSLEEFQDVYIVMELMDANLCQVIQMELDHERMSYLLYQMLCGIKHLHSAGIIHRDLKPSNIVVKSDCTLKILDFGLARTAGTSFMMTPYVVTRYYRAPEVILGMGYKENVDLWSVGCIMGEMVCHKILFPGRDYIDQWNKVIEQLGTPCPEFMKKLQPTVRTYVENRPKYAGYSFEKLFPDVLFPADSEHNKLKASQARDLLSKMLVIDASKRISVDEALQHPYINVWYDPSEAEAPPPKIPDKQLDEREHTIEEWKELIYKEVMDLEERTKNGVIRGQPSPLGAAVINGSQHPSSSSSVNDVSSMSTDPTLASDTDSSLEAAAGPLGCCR
Sequence of Aurora kinase B (Q96GD4 whole entry): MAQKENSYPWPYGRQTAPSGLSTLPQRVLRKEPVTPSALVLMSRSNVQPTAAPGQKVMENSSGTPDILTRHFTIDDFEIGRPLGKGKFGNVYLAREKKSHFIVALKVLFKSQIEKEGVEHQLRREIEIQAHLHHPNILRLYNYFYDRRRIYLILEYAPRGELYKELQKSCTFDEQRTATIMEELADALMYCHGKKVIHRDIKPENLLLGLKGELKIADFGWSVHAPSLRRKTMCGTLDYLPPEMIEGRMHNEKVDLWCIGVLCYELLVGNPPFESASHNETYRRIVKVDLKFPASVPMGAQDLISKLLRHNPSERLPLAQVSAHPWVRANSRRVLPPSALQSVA
Sequence of Insulin-like growth factor 1 receptor (P08069 31-736 limits assumed): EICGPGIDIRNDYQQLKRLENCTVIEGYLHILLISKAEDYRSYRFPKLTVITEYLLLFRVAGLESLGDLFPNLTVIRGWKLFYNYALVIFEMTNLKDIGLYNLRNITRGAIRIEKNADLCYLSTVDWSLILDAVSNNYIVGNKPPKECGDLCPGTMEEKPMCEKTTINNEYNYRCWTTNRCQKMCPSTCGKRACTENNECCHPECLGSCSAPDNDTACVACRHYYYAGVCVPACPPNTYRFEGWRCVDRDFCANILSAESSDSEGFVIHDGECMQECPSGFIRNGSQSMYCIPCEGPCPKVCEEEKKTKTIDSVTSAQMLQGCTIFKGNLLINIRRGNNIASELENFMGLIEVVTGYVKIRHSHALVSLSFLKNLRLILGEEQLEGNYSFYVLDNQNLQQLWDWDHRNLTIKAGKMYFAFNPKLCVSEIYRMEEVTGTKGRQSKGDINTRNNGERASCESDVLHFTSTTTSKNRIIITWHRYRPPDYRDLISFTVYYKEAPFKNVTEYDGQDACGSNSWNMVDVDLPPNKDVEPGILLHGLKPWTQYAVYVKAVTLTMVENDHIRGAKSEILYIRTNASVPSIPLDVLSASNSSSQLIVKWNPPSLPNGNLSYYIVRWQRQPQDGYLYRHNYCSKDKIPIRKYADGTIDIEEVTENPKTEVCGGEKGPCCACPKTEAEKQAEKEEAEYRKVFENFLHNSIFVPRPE
Sequence of Insulin-like growth factor 1 receptor (P08069 741-1367 limits assumed): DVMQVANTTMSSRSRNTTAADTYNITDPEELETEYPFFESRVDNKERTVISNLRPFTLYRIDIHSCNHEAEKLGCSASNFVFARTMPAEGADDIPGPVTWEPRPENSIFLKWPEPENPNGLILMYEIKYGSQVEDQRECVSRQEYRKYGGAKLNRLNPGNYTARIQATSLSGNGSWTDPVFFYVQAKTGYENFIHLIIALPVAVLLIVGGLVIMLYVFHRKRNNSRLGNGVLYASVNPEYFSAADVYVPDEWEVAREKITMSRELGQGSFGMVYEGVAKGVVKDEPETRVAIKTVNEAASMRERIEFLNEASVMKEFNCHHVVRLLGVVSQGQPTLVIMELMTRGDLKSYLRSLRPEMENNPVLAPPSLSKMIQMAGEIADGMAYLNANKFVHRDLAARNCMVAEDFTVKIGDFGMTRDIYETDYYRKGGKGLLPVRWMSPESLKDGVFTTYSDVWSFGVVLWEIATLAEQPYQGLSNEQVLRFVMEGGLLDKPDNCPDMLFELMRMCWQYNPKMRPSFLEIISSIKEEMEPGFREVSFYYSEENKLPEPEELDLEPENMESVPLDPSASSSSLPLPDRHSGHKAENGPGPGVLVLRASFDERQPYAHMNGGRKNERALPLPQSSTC
Sequence of Vascular endothelial growth factor receptor 2 (P35968 whole entry): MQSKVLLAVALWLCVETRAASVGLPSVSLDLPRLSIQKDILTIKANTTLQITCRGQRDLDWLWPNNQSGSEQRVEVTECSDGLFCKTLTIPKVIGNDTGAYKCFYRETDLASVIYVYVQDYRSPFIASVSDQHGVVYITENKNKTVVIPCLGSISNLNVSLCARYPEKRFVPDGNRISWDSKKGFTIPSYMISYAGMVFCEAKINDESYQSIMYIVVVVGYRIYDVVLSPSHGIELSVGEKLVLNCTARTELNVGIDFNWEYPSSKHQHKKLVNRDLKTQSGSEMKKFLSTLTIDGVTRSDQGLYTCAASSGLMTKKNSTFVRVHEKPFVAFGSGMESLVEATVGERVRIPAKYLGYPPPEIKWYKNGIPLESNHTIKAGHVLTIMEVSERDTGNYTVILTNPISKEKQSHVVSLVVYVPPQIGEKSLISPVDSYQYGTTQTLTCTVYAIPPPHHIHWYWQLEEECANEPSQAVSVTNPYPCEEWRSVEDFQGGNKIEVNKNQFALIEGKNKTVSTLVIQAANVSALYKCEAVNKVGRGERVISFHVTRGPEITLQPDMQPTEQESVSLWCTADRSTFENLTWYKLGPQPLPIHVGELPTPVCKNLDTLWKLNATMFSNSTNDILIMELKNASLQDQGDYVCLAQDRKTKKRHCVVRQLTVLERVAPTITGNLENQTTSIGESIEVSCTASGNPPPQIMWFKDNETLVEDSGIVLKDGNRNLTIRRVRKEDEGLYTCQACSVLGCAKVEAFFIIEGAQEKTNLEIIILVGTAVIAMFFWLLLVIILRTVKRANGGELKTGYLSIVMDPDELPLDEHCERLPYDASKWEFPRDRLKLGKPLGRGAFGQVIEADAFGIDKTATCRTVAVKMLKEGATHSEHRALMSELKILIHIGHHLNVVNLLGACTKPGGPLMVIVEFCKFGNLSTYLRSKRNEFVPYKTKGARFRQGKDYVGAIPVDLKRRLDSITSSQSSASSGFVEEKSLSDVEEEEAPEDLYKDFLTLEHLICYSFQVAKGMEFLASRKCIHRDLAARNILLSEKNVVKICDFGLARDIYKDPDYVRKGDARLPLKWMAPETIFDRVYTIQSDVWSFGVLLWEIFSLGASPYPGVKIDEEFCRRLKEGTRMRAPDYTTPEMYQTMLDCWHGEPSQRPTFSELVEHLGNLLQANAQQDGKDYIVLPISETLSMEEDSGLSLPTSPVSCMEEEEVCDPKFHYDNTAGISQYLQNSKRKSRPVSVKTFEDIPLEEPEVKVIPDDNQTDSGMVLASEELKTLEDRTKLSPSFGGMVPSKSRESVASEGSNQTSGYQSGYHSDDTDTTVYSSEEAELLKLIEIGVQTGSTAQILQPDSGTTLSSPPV

Row | SMILES | IC50 (Aurora kinase A) | IC50 (SW-620 [1]) | IC50 [2] | also measured
1 | COc1cc2c(Nc3ncc(C(=O)Nc4ccc(F)cc4)s3)ncnc2cc1OCCCN1CCOCC1 | 1 nM | 600 nM | 49 nM | –
2 | COc1cc2c(Nc3ncc(CC(=O)Nc4cccc(F)c4)s3)ncnc2cc1OCCCN1CCN(C)CC1 | < 1 nM | 2 nM | < 1 nM | –
3 | COc1cc2c(Nc3ncc(CC(=O)NCCC(C)C)s3)ncnc2cc1OCCCN1CCOCC1 | 158 nM | 400 nM | 5 nM | –
4 | COc1cc2c(Nc3ncc(CC(=O)Nc4cccc(F)c4F)s3)ncnc2cc1OCCCN1CCC[C@H]1CO | 2 nM | 1 nM | – | –
5 | COc1cc2c(Nc3ncc(CC(=O)Nc4cccc(F)c4)s3)ncnc2cc1OCCN1CCC(CCO)CC1 | < 1 nM | 19 nM | < 1 nM | –
6 | COc1cccc(NC(=O)Cc2cnc(Nc3ncnc4cc(OCCCN5CCC[C@H]5CO)c(OC)cc34)s2)c1 | 106 nM | 1000 nM | 5 nM | –
7 | COc1cc2c(Nc3ncc(CC(=O)Nc4cccc(F)c4)s3)ncnc2cc1OCCCN1CCOCC1 | < 1 nM | < 1 nM | < 1 nM | –
8 | COc1cc2c(Nc3ncc(CC(=O)Nc4cccc(F)c4)o3)ncnc2cc1OCCCN1CCOCC1 | 472 nM | 1000 nM | 341 nM | –
9 | COc1cc2c(Nc3ncc(SCc4cccc(F)c4)s3)ncnc2cc1OCCCN1CCC(CO)CC1 | < 1 nM | 400 nM | < 1 nM | –
10 | COCCOc1cc2ncnc(Nc3ncc(CC(=O)Nc4cccc(F)c4)s3)c2cc1OC | 1 nM | 10 nM | 8 nM | –
11 | CCS(=O)(=O)Nc1ccc2c(c1)/C(=C(/Nc1ccc(CN3CCCCC3)cc1)c1ccccc1)C(=O)N2 [HESPERADIN] | – | – | – | IC50 (Aurora kinase B): 250 nM
12 | COc1cc2c(Nc3ncc(CC(=O)Nc4cccc(F)c4)s3)ncnc2cc1OCCCN1CCC(COP(=O)(O)O)CC1 | – | – | – | T1/2 (Mus musculus): 0.7 h; solubility [3]: 10000 µg/mL (≈ 15.1 mM)
13 | CCCCc1cnc(Nc2ncnc3cc(OCCCN4CCOCC4)c(OC)cc23)s1 | 6 nM | 1900 nM | 63 nM | –
14 | COc1cc2c(Nc3ncc(CC(=O)Nc4ccccc4C(N)=O)s3)ncnc2cc1OCCCN1CCC[C@H]1CO | 452 nM | > 10000 nM | 282 nM | –

The next lines start with results.

Row | IC50 (Aurora kinase A) | IC50 (SW-620 [1]) | IC50 [2] | SMILES | also measured
15 | 578 nM | 200 nM | 12 nM | COc1cc2c(Nc3nc(CC(=O)Nc4cccc(F)c4)cs3)ncnc2cc1OCCCN1CCOCC1 | –
16 | – | 80 nM | 1 nM | COc1cc2c(Nc3ncc(CC(=O)Nc4cccc(F)c4)s3)ncnc2cc1OCCCNCCO | –
17 | 111 nM | 2800 nM | 136 nM | COc1cc2c(Nc3ncc(CNC(=O)c4cccc(F)c4)s3)ncnc2cc1OCCCN1CCC(CO)CC1 | –
18 | 55 nM | 2300 nM | 286 nM | CCN(C(=O)Cc1cnc(Nc2ncnc3cc(OCCCN4CCOCC4)c(OC)cc23)s1)c1ccccc1 | –
19 | < 1 nM | 20 nM | < 1 nM | C#CCN(CCO)CCCOc1cc2ncnc(Nc3ncc(CC(=O)Nc4cccc(F)c4)s3)c2cc1OC | –
20 | > 1000 nM | > 10000 nM | > 1000 nM | COc1cc2c(Nc3nc(C(=O)Nc4ccc(F)cc4)c[nH]3)ncnc2cc1OCCCN1CCOCC1 | –
21 | 43 nM | 1100 nM | 133 nM | COc1cc2c(Nc3ncc(C)s3)ncnc2cc1OCCCN1CCOCC1 | –
22 | < 1 nM | < 1 nM | < 1 nM | CCN(CCO)CCCOc1cc2ncnc(Nc3ncc(CC(=O)Nc4cccc(F)c4)s3)c2cc1OC | –
23 | 12 nM | 800 nM | 28 nM | COc1cc2c(Nc3ncc(CNS(=O)(=O)c4cccc(F)c4)s3)ncnc2cc1OCCCN1CCC(CO)CC1 | –
24 | – | 200 nM | < 1 nM | COc1cc2c(Nc3ncc(Oc4cccc(F)c4)s3)ncnc2cc1OCCCN1CCC(CO)CC1 | –
25 | < 1 nM | 4 nM | < 1 nM | COc1cc2c(Nc3ncc(CC(=O)Nc4cccc(F)c4)s3)ncnc2cc1OCCCN1CCC[C@H]1CO | –
26 | 483 nM | 600 nM | 48 nM | COc1cc2c(Nc3ncc(CC(=O)Nc4cccc(N(C)C)c4)s3)ncnc2cc1OCCCN1CCC[C@H]1CO | –
27 | – | 5 nM | 7 nM | COc1cc2c(Nc3ncc(CC(=O)Nc4cccc(F)c4)s3)ncnc2cc1OCCCN1CCC(CO)CC1 | IC50 [4]: 21000 nM; Vd [5]: 1.8 L/kg; IC50 [6]: 25000 nM; IC50 (SW-620 [7]): 2 nM; half-life [8]: 5 h; IC50 [9]: 62000 nM; IC50 [10]: 13000 nM; fraction unbound [11]: 0.024; IC50 [12]: > 100000 nM; IC50 [13]: 1000 nM; IC50 (Focal adhesion kinase 1): 4000 nM; solubility [14]: 35 µg/mL (≈ 0.0603 mM); clearance [15]: 16.6 mL/min/kg; logD [16]: 3.2; IC50 [17]: > 100000 nM; IC50 [18]: > 100000 nM; IC50 [19]: 3000 nM; IC50 [20]: 8000 nM
